The test system of data set [1] is H2228 EML4-ALK cancer cell line. Description: Antiproliferative activity, MTT assay, H2228 monolayer. Format: cell-based, human. The conditions noted are these: read-out: H2228 IC50 EML4-ALK. A general note: Tetrazolium dyes change colour on reduction, which living cells bring about.
Data set [2] concerns BaF3/NMP-ALK cancer cell line. The data set can be described thus: Antiproliferative activity, CCK-8 assay, BaF3/ALK cells. The conditions noted are these: read-out: BaF3/NMP-ALK IC50. Format: cell-based, mouse.
A further data set deals with L02 cells. The data set can be described thus: Toxicity assay on human normal cells, L02. The note with it: L02, read-out: IC50 L02. Format: cell-based.
The next data set deals with HK-2 cells. The data set can be described thus: Toxicity assay on human normal cells, HK-2. The format is cell-based.
For a further data set, the system named is H2228 xenograft. The data set can be described thus: In vivo anti-tumor evaluation, H2228 xenograft in nude mice. The conditions noted are these: 20 mg kg^-1, oral, 14 days.
The subject of a further data set is EA.hy926 cells. Description: Toxicity assay on human normal cells, EA.hy926. The format is cell-based. The note with it: for IC50: Homo sapiens.
Setting [3] is: MTT, 48 h, mean ± SD, at least three experiments.
Where [4] appears, read: CCK-8, 48 h, at least three experiments.

Values joined by “and” are separate entries in the source; they are usually repeats but may differ in a detail not shown here. Identical values can stand only once. Like-named read-outs stand apart in the source and are kept apart here.

As to “4-Chloro-N5-(4-chloro-2-(ethylsulfinyl)phenyl)-N2-(2-isopropoxy-5-methyl-4-(1-methylpiperidin-4-yl)phenyl)pyrimidine-2,5-diamine [Compound 18i]”, the figures for the IC50 in data set [1] (setting [3]) and in data set [2] (setting [4]) were 81 ± 28 nM and 77 ± 15 nM, respectively.
The like results for “4-Chloro-N5-(2-(ethylsulfinyl)phenyl)-N2-(2-methoxy-5-methyl-4-(1-methylpiperidin-4-yl)phenyl)pyrimidine-2,5-diamine [Compound 18e]” were, in that order, 44 ± 12 nM and 33 ± 10 nM.
In the case of `Cc1cc(Nc2ncc(Cl)c(Nc3ccccc3S(=O)(=O)C(C)C)n2)c(OC(C)C)cc1C1CCNCC1` [Ceritinib, ceritinib], the IC50 amounted to 3420 ± 560 nM with L02 cells; 25 ± 10 nM in data set [1] (Homo sapiens, NCI-H2228, 48 h); 1440 ± 250 nM in the data set with HK-2 cells (Homo sapiens, HK-2, read-out: IC50 HK-2); 18 ± 1 nM in data set [2] (Mus musculus, BaF3, 48 h); 3420 ± 560 nM with EA.hy926 cells (EA.hy 926, read-out: IC50 EA.hy926 (active)); 2440 ± 340 nM in the data set with EA.hy926 cells (EA.hy 926, read-out: IC50 EA.hy926 (quiescent)). In addition, the HK-2 cell morphology result in the data set with HK-2 cells (48 h, 1 μM (Fig. 9)) is “abnormal morphology changes”. The “Tumor growth inhibitory rate (TGI)” value in the data set with H2228 xenograft is 72.8% and 72.0%. The “Tumor volume changes (inhibitory effects)” value with H2228 xenograft came out at 131.00 mm^3. Also, the EA.hy926 cell morphology result in the data set on EA.hy926 cells (48 h, 1 μM (Fig. 9)) is “abnormal morphology changes”.
Turning to “4-Chloro-N5-(2-(ethylsulfinyl)phenyl)-N2-(2-methoxy-4-(1-methylpiperidin-4-yl)phenyl)pyrimidine-2,5-diamine [Compound 18k]”, the IC50 in data set [1] (setting [3]) is 57 ± 6 nM; in data set [2] (setting [4]) it was 24 ± 5 nM.
Take “4-Chloro-N5-(2-(ethylsulfinyl)-4-fluorophenyl)-N2-(2-methoxy-5-methyl-4-(1-methylpiperidin-4-yl)phenyl)pyrimidine-2,5-diamine [Compound 18f]”: the IC50 in data set [1] (setting [3]) turned out to be 37 ± 11 nM; in data set [2] (setting [4]), 31 ± 13 nM.
The like results for “4-Chloro-N5-(2-(ethylsulfinyl)-4-fluorophenyl)-N2-(2-isopropoxy-5-methyl-4-(1-methylpiperidin-4-yl)phenyl)pyrimidine-2,5-diamine [Compound 18L]” were, in that order, 31 ± 10 nM and 28 ± 8 nM.
Consider “4-Chloro-N2-(2-ethoxy-5-methyl-4-(1-methylpiperidin-4-yl)phenyl)-N5-(2-(ethylsulfinyl)-4-fluorophenyl)pyrimidine-2,5-diamine [Compound 18g]”, for which the IC50 was determined as 33 ± 7 nM in data set [1] (setting [3]) and 29 ± 12 nM in data set [2] (setting [4]).
On to “4-Chloro-N5-(2-(ethylsulfinyl)-4-fluorophenyl)-N2-(2-methoxy-5-methyl-4-(piperidin-4-yl)phenyl)pyrimidine-2,5-diamine [Compound 18h]”, for which the figures for the IC50 in data set [1] (setting [3]) and in data set [2] (setting [4]) were 58 ± 16 nM and 47 ± 15 nM, respectively.
As to “4-Chloro-N5-(2-(ethylsulfinyl)-4-fluorophenyl)-N2-(2-isopropoxy-5-methyl-4-(piperidin-4-yl)phenyl)pyrimidine-2,5-diamine [Compound 18j]”, the IC50 in data set [1] (setting [3]) is 63 ± 8 nM; in data set [2] (setting [4]), 56 ± 4 nM.

The values are drawn from article PMC11140455 (RSC Advances, 2024).
